Consider one compound from US5637582A, “Peripheral circulation improving agent” (priority 1992, dated 1997).

Data set [1] concerns femoral artery. Put plainly: Increase in femoral arterial blood flow in anesthetized dogs, cumulative i.v. dosing (Experimental Example 1). The format is in vivo, dog. The conditions noted are these: 60 min after administration. The protocol:
Adult dogs (one group consisting of a dog) were intravenously given the test compound under anesthesia and artificial respiration successively at intervals of 60 minutes so that the dose can be 10, 30, 100 and 300 μg/kg body weight, and the blood flow of femoral artery was measured with a time course. […] An increase in the femoral arterial blood flow was calculated by subtracting the blood flow before the administration of the first dose of test compound as the standard value (the base line) from that 60 minutes after each administration.

The subject of data set [2] is femoral artery. Put plainly: Maximum increase in femoral arterial blood flow in anesthetized dogs, cumulative i.v. dosing (Experimental Example 3). The format is in vivo, dog. Conditions: maximum during 60 min. The procedure:
Adult dogs (one group consisting of 5 dogs) were intravenously given the test compound under anesthesia and artificial respiration successively at intervals of 60 minutes so that the dose can be 10, 30, 100, 300 and 1000 μg/kg body weight, and the blood flow of femoral artery was measured with a time course. […] An increase in the femoral arterial blood flow was calculated by subtracting the blood flow before the administration of the first dose of test compound as the standard value (the base line) from that of maximum during an interval of 60 minutes after each administration.

Data set [3] concerns femoral artery. Put plainly: Change of femoral arterial blood flow in anesthetized dogs (Experimental Example 4). The format is in vivo, dog. The conditions noted are these: 100 μg/kg i.v.
Protocol: (§1) Each test compound was intravenously administered to adult dogs (one group consisting of 2 or 4 dogs) under anesthesia and artificial respiration at a dose of 100 μg/kg body weight. Femoral arterial blood flow, vertebral arterial blood flow and arterial blood pressure were measured 1, 3, 5, 10, 20 and 30 minutes after the administration. The femoral arterial blood flow and vertebral arterial blood flow were measured with an electromagnetic blood flowmeter (manufactured by Nihon Koden, MFV-2100, trade name) through a flow probe attached to the femoral artery or vertebral artery. The arterial blood pressure was measured with a pressure transducer (manufactured by Millar, MICRO-TIP, Model SPC-350) through a catheter attached to the brachial artery.
(§2) Changes of the femoral arterial blood flow, vertebral arterial blood flow and arterial blood pressure were estimated by comparing the values measured before and after the administration of the test compound.
Data set [4] has as its system vertebral artery. The data set is described as follows: Change of vertebral arterial blood flow in anesthetized dogs (Experimental Example 4). Conditions: 100 μg/kg i.v.
Protocol: as §1, §2

Turning to `CC(=O)O[C@@H]1C(=O)N(CCN(C)C)c2ccc(C)cc2S[C@@H]1c1ccc(C)cc1` [Compound A], the “Increase in femoral arterial blood flow” value worked out at 13 mL/min in data set [1] (10 μg/kg i.v.); 30 mL/min in data set [1] (30 μg/kg i.v.); 34 mL/min in data set [1] (100 μg/kg i.v.); 32 mL/min in data set [1] (300 μg/kg i.v.); 5.6 mL/min in data set [2] (10 μg/kg i.v.); 40.4 mL/min in data set [2] (30 μg/kg i.v.). Besides, the entries for the “Increase in femoral arterial blood flow” value in data set [2] (100 μg/kg i.v.) and in data set [2] (300 μg/kg i.v.) were 55.2 mL/min and 61.4 mL/min, respectively. The “Femoral Arterial Blood Flow change” value in data set [3] (1 min) is 3.5 Δ ml/min; in data set [3] (3 min) it was 5.5 Δ ml/min; in data set [3] (5 min), 7.8 Δ ml/min; in data set [3] (10 min) it was 13.0 Δ ml/min; in data set [3] (20 min), 21.5 Δ ml/min; in data set [3] (30 min) it was 28.0 Δ ml/min. Also, in data set [3] (60 minutes after administration), the “AUC60 of the femoral arterial blood flow” value came out at 1538.4 mL. Besides, in data set [3] (even after 30 minutes, in words), the “femoral arterial blood flow increasing activity” value is recorded as “excellent femoral arterial blood flow increasing activity”. Also, the “Vertebral Arterial Blood Flow change (side effects)” value in data set [4] (1 min) is given as 0.3 Δ ml/min; in data set [4] (3 min) it was 0.0 Δ ml/min; in data set [4] (5 min), -0.5 Δ ml/min; in data set [4] (10 min), -1.5 Δ ml/min; in data set [4] (20 min) it was -2.8 Δ ml/min; in data set [4] (30 min) it was -2.5 Δ ml/min. The “effect on vertebral arterial blood flow” value in data set [4] (G and H: one minute after, in words) is “substantially no effect”.
